Columns and labels:
[1] = system: recombinant human anti-SARS-CoV antibody 03-018; type: binding; set-up: Binding of antibody 03-018 to linear peptides of the N protein of SARS-CoV Urbani / Binding of antibody 03-018 to looped/cyclic peptides of the N protein of SARS-CoV Urbani: unit not given here
[2] = system: rabbit serum obtained by immunizing a rabbit with the SARS-CoV strain Frankfurt 1; type: binding; set-up: Binding of a rabbit serum to linear peptides / Binding of a rabbit serum to looped peptides / Rabbit serum linear peptides / Rabbit serum looped peptides / Binding of a rabbit serum to linear peptides of protein N of SARS-CoV Urbani (Rabbit serum linear peptides) / Binding of a rabbit serum to looped/cyclic peptides of protein N of SARS-CoV Urbani (Rabbit serum looped peptides): unit not given here
[3] = system: antibodies in sera from SARS patients (sera 1a, 1b, 2, 6, 37, 62, London, SARS-yellow, SARS-green); type: binding, human; set-up: Binding of serum 6 to linear peptides of protein X1 of SARS-CoV Urbani / Binding of serum 37 to linear peptides of protein X1 of SARS-CoV Urbani / Binding of serum 6 to looped/cyclic peptide (PEPSCAN-ELISA) / Binding of serum 37 to looped/cyclic peptide (PEPSCAN-ELISA) / Binding of serum 37 to looped/cyclic peptides of protein X1 of SARS-CoV Urbani / Binding of serum 6 to linear peptides of protein X2 / Binding of serum 37 to linear peptides of protein X2 / Binding of serum 37 to looped/cyclic peptides of protein X2 of SARS-CoV Urbani / Binding of serum 6 to linear peptides of protein M of SARS-CoV Urbani / Binding of serum 37 to linear peptides of protein M of SARS-CoV Urbani / Binding of serum 6 to looped/cyclic peptides of protein M of SARS-CoV Urbani / Binding of serum 37 to looped/cyclic peptides of protein M of SARS-CoV Urbani / Binding of serum 6 to linear peptides of protein X3 of SARS-CoV Urbani / Binding of serum 37 to linear peptides of protein X3 of SARS-CoV Urbani / Binding of serum 37 to looped/cyclic peptides of protein X3 of SARS-CoV Urbani / Binding of serum 6 to linear peptides of protein X4 of SARS-CoV Urbani / Binding of serum 37 to linear peptides of protein X4 of SARS-CoV Urbani / Binding of serum 37 to looped/cyclic peptides of protein X4 of SARS-CoV Urbani / Binding of serum 6 to linear peptides of protein X5 of SARS-CoV Urbani / Binding of serum 37 to linear peptides of protein X5 of SARS-CoV Urbani / Binding of serum 37 to looped/cyclic peptides of protein X5 of SARS-CoV Urbani / Binding of serum 6 to linear peptides of protein N of SARS-CoV Urbani / Binding of serum 37 to linear peptides of protein N of SARS-CoV Urbani / Binding of serum 6 to linear peptide (PEPSCAN-ELISA) / Binding of serum 1a to looped/cyclic peptides of protein N of SARS-CoV Urbani / Binding of serum 1b to looped/cyclic peptides of protein N of SARS-CoV Urbani / Binding of serum 2 to looped/cyclic peptides of protein N of SARS-CoV Urbani / Binding of serum 6 to looped/cyclic peptides of protein N of SARS-CoV Urbani / Binding of serum 37 to looped/cyclic peptides of protein N of SARS-CoV Urbani / Binding of serum 62 to looped/cyclic peptides of protein N of SARS-CoV Urbani / Binding of serum London to looped/cyclic peptides of protein N of SARS-CoV Urbani / Binding of serum SARS-green to looped/cyclic peptides of protein N of SARS-CoV Urbani: unit not given here
[4] = system: control sera (pooled serum of ten healthy LUMC hospital workers; commercial negative donor pooled serum from the Dutch bloodbank); type: binding, human; set-up: Binding of Control serum LUMC to linear peptides / Binding of Control serum Blood-bank to linear peptides / Binding of Control serum LUMC to looped peptides / Binding of Control Serum Blood-Bank to Looped peptides / Binding of Control serum LUMC to linear peptides of the protein M of SARS-CoV Urbani / Binding of Control serum Blood-bank to linear peptides of the protein M of SARS-CoV Urbani / Binding of Control serum LUMC to looped peptides of the protein M of SARS-CoV Urbani / Binding of Control Serum Blood-Bank to Looped peptides of the protein M of SARS-CoV Urbani: unit not given here

## AATVLQLPQGTTLPK
[1]
  Binding of antibody 03-018 to linear peptides of the N protein of SARS-CoV Urbani: 0.1
  Binding of antibody 03-018 to looped/cyclic peptides of the N protein of SARS-CoV Urbani: 0.2
[2]
  Binding of a rabbit serum to linear peptides of protein N of SARS-CoV Urbani (Rabbit serum linear peptides): 0.3
  Binding of a rabbit serum to looped/cyclic peptides of protein N of SARS-CoV Urbani (Rabbit serum looped peptides): 1.2

## DPQFKDNVILLNKHI
[1]
  Binding of antibody 03-018 to linear peptides of the N protein of SARS-CoV Urbani: 0.1
  Binding of antibody 03-018 to looped/cyclic peptides of the N protein of SARS-CoV Urbani: 0.3
[2]
  Binding of a rabbit serum to linear peptides of protein N of SARS-CoV Urbani (Rabbit serum linear peptides): 0.2
  Binding of a rabbit serum to looped/cyclic peptides of protein N of SARS-CoV Urbani (Rabbit serum looped peptides): 0.7

## KDPQFKDNVILLNKH
[1]
  Binding of antibody 03-018 to linear peptides of the N protein of SARS-CoV Urbani: 0.1
  Binding of antibody 03-018 to looped/cyclic peptides of the N protein of SARS-CoV Urbani: 0.2
[2]
  Binding of a rabbit serum to linear peptides of protein N of SARS-CoV Urbani (Rabbit serum linear peptides): 0.2
  Binding of a rabbit serum to looped/cyclic peptides of protein N of SARS-CoV Urbani (Rabbit serum looped peptides): 0.5

## YRINWVTGGIAIAMA
[3]
  Binding of serum 1a to linear peptides of protein M of SARS-CoV Urbani: 0.7
  Binding of serum 1a to looped/cyclic peptides of protein M of SARS-CoV Urbani: 0.6
  Binding of serum 1b to linear peptides of protein M of SARS-CoV Urbani: 0.6
  Binding of serum 1b to looped/cyclic peptides of protein M of SARS-CoV Urbani: 0.4
  Binding of serum 2 to linear peptides of protein M of SARS-CoV Urbani: 0.7
  Binding of serum 2 to looped/cyclic peptides of protein M of SARS-CoV Urbani: 0.6
  Binding of serum 6 to linear peptides of protein M of SARS-CoV Urbani: 0.3
  Binding of serum 6 to looped/cyclic peptides of protein M of SARS-CoV Urbani: 0.5
  Binding of serum 37 to linear peptides of protein M of SARS-CoV Urbani: 0.8
  Binding of serum 37 to looped/cyclic peptides of protein M of SARS-CoV Urbani: 0.5
  Binding of serum 62 to linear peptides of protein M of SARS-CoV Urbani: 0.8
  Binding of serum 62 to looped/cyclic peptides of protein M of SARS-CoV Urbani: 0.6
  Binding of serum London to linear peptides of protein M of SARS-CoV Urbani: 0.3
  Binding of serum London to looped/cyclic peptides of protein M of SARS-CoV Urbani: 0.2
  Binding of serum SARS-green to linear peptides of protein M of SARS-CoV Urbani: 0.3
  Binding of serum SARS-green to looped/cyclic peptides of protein M of SARS-CoV Urbani: 0.0
  Binding of serum SARS-yellow to linear peptides of protein M of SARS-CoV Urbani: 0.1
  Binding of serum SARS-yellow to looped/cyclic peptides of protein M of SARS-CoV Urbani: 0.8
[2]
  Rabbit serum linear peptides: 0.4
  Rabbit serum looped peptides: 0.3
[4]
  Binding of Control Serum Blood-Bank to Looped peptides of the protein M of SARS-CoV Urbani: 0.7
  Binding of Control serum Blood-bank to linear peptides of the protein M of SARS-CoV Urbani: 0.8
  Binding of Control serum LUMC to linear peptides of the protein M of SARS-CoV Urbani: 0.6
  Binding of Control serum LUMC to looped peptides of the protein M of SARS-CoV Urbani: 0.6

Reference: patent publication US20070128217A1 (priority 2003, published 2007)
